One molecule from US11857536B2, “Glucokinase activator for treating diabetes with renal impairment” (HUA Medicine (Shanghai) Ltd., priority 2020, dated 2024) can be followed below.

The data set is described as follows: Phase I open-label, parallel-group, single oral dose pharmacokinetic study of dorzagliatin in ESRD and healthy subjects. It is filed as in vivo, human. The conditions noted are these: single 25 mg oral dose; for AUC(0-inf) / AUC(0-t) / Cmax: human, po, 25 mg; for Cmax: read-out: Cmax, LS mean. An excerpt: This phase I study was to access the pharmacokinetics and safety of a single dose of dorzagliatin in renally impaired and heathy subjects. The study was divided into two phases: Phase 1 having two groups (P1 and H) and Phase 2 having three groups (P2, P3, and P4). Phase 2 would start after the completion of Phase 1 and determining an increase of ≥100% in the average AUC (AUClast or AUCinf) of the ESRD subjects than that of the healthy subjects in Phase 1. The ESRD subjects of Group P1 were matched closely with the healthy subjects as to their sexes, ages (±5 yrs), and BMIs (±15%).
In Phase 1, eligible subjects were admitted to a clinical research center (CRC) on Day −2 or −1. On Day −1, the subjects had no additional food after a standard dinner for at least 10 h. In the morning of Day 1, the subjects received dorzagliatin (25 mg) orally with empty stomach. […] Blood samples were collected at the following time points: within 60 min pre-dose; and at 0.25, 0.5, 1, 1.5, 2, 2.5, 3, 4, 6, 8, 12, 24, 36, 48, and 72 h post-dose. Urine samples for the pharmacokinetic (PK) analysis were collected at the following time points: within 60 min pre-dose; and at 0˜4, 4˜8, 8˜12, 12˜24, 24˜36, 36˜48, and 48˜72 h post-dose. The samples were analyzed using LC-MS/MS. The plasma concentration-time data for dorzagliatin were analyzed using a non-compartmental model to obtain PK parameters, including Cmax, AUClast, AUCinf, Cmax,u, AUClast,u, and AUCinf,u. An ANOVA analysis was performed on the data between H and P1 groups.

Read-outs that look alike come from different tables or passages of the source.

Turning to `CC(C)C[C@@H](C(=O)Nc1ccn(C[C@@H](O)CO)n1)N1CC(Oc2ccccc2Cl)=CC1=O` [dorzagliatin, (S)-2-(4-(2-chlorophenoxy)-2-oxo-2,5-dihydro-1H-pyrrol-1-yl)-N-(1-((R)-2,3-dihydroxypropyl)-1H-pyrazol-3-yl)-4-methylpentanamide], the “AUCinf in ESRD subjects (Group P1) compared to healthy subjects (Group H), in words” value is “substantially the same” and the “Cmax in ESRD subjects (Group P1) compared to healthy subjects (Group H), in words” value is “slightly decreased”. In addition, the “Cmax, u, LS mean” value (Group H (healthy), fasted) is 29.5 ng/mL. In addition, for the setting “Group H (healthy), fasted, plasma”, the “AUClast, LS mean” value stood at 1857 ng·h/mL. Moreover, the “Cmax, u, LS mean” value (Group P1 (ESRD), fasted) came out at 27.5 ng/mL. Also, the AUC(0-inf) (plasma, Group H (healthy), fasted, plasma, read-out: AUCinf, LS mean) came to 1890 ng·h/mL. The AUC(0-inf) (plasma, Group H (healthy), fasted, read-out: AUCinf, u, LS mean) was 126 ng·h/mL. The AUC(0-t) (plasma, Group H (healthy), fasted, read-out: AUClast, u, LS mean) was 124 ng·h/mL. Also, the Cmax (plasma, Group H (healthy, eGFR ≥90), fasted, plasma) is 442 ng/mL. In addition, the AUC(0-inf) (plasma, Group P1 (ESRD), fasted, plasma, read-out: AUCinf, LS mean) is 2070 ng·h/mL. Besides, the AUC(0-t) (plasma, Group P1 (ESRD), fasted, plasma, read-out: AUClast, LS mean) was 2060 ng·h/mL. For the same molecule, under “plasma, Group P1 (ESRD), fasted, read-out: AUCinf, u, LS mean”, the AUC(0-inf) was 163 ng·h/mL. Also, the AUC(0-t) (plasma, Group P1 (ESRD), fasted, read-out: AUClast, u, LS mean) came to 162 ng·h/mL. Further, under “plasma, Group P1 (ESRD, eGFR <15, no dialysis), fasted, plasma”, the peak concentration (Cmax) is 356 ng/mL. Further, the “Cmax, u GMR (P1/H)” value (ratio ESRD/healthy) came out at 0.93. For the same molecule, the “Difference in AUC between Groups H and P1, in words” value (ANOVA, preset criterion AUC increase >100% not met) was “no significant difference”.

Broadly, the Cmax is the highest concentration seen after dosing.
